In patent US20250319053A1, “INHIBITORS OF THE PEPTIDYL-PROLYL CIS/TRANS ISOMERASE (PIN1), COMBINATIONS AND USES THEREOF” (DANA-FARBER CANCER INSTITUTE, INC., priority 2021, published 2025):

System: WT B6 mice (non-tumor-bearing mice)
Assay: Blood test (CBC, liver, renal) of Pin1i-2 treated non-tumor-bearing B6 mice
Type: in vivo, mouse
Conditions: for CBC BA: Normal Range 0-2; for CBC EO: Normal Range 0-3.9; for CBC MO: Normal Range 0-7.5; for CBC WBC: Normal Range 1.8-10.7; for Liver Alb: Normal Range 1.95-4.74; for CBC RBC: Normal Range 6.36-9.42; for CBC NE: Normal Range 6.6-38.9; for CBC Hb: Normal Range 11-15.1; for Renal BUN: Normal Range 17-57.5; for Liver ALT: Normal Range 30-206; for CBC LY: Normal Range 55.8-91.6; for CBC PLT: Normal Range 592-2972; for Renal Cre: Normal Range <0.15
Protocol: Table 1 is a table of blood test results together with body weight of Pin1i−2 treated non-tumor-bearing B6 mice. See also FIG. 1A-FIG. 1G, FIG. 8A-FIG. 8O, and FIG. 9A-9L. WT B6 mice (non-tumor-bearing mice) were treated with vehicle or Pin1i−2 (20, 40, or 60 mg/kg, i.p., daily) for 5 weeks, followed by examining mice body weight or the RBC, Hb, Plate, and kidney and liver function using blood tests at 3 weeks and 5 weeks (n=5).

Compound: CC(C)(C)CN(C(=O)CCl)C1CCS(=O)(=O)C1 (stereo not drawn) [Pin1i−2, sulfopin]
- CBC BA (20 mg/kg i.p. daily, 3 weeks): 0.064%
- CBC EO (20 mg/kg i.p. daily, 3 weeks): 0.204%
- CBC MO (20 mg/kg i.p. daily, 3 weeks): 8.248%
- CBC WBC (20 mg/kg i.p. daily, 3 weeks): 7.508 K/uL
- Liver Alb (20 mg/kg i.p. daily, 3 weeks): 3.375 g/dL
- CBC RBC (20 mg/kg i.p. daily, 3 weeks): 9.424 M/uL
- CBC NE (20 mg/kg i.p. daily, 3 weeks): 6.5%
- CBC Hb (20 mg/kg i.p. daily, 3 weeks): 13.8 g/dL
- Renal BUN (20 mg/kg i.p. daily, 3 weeks): 31 mg/dL
- Liver ALT (20 mg/kg i.p. daily, 3 weeks): 41.5 U/L
- CBC LY (20 mg/kg i.p. daily, 3 weeks): 84.982%
- CBC PLT (20 mg/kg i.p. daily, 3 weeks): 530.4 K/uL
- Renal Cre (20 mg/kg i.p. daily, 3 weeks): <0.15 mg/dL
- CBC BA (20 mg/kg i.p. daily, 5 weeks): 0.044%
- CBC EO (20 mg/kg i.p. daily, 5 weeks): 0.15%
- CBC MO (20 mg/kg i.p. daily, 5 weeks): 9.16%
- CBC WBC (20 mg/kg i.p. daily, 5 weeks): 7.452 K/uL
- Liver Alb (20 mg/kg i.p. daily, 5 weeks): 2.94 g/dL
- CBC RBC (20 mg/kg i.p. daily, 5 weeks): 9.228 M/uL
- CBC NE (20 mg/kg i.p. daily, 5 weeks): 6.134%
- CBC Hb (20 mg/kg i.p. daily, 5 weeks): 13.38 g/dL
- Renal BUN (20 mg/kg i.p. daily, 5 weeks): 30.4 mg/dL
- Liver ALT (20 mg/kg i.p. daily, 5 weeks): 41.4 U/L
- CBC LY (20 mg/kg i.p. daily, 5 weeks): 84.51%
- CBC PLT (20 mg/kg i.p. daily, 5 weeks): 612.6 K/uL
- Renal Cre (20 mg/kg i.p. daily, 5 weeks): <0.15 mg/dL
- CBC BA (40 mg/kg i.p. daily, 3 weeks): 0.056%
- CBC EO (40 mg/kg i.p. daily, 3 weeks): 0.156%
- CBC MO (40 mg/kg i.p. daily, 3 weeks): 8.298%
- CBC WBC (40 mg/kg i.p. daily, 3 weeks): 4.76 K/uL
- Liver Alb (40 mg/kg i.p. daily, 3 weeks): 3.6 g/dL
- CBC RBC (40 mg/kg i.p. daily, 3 weeks): 8.698 M/uL
- CBC NE (40 mg/kg i.p. daily, 3 weeks): 6.97%
- CBC Hb (40 mg/kg i.p. daily, 3 weeks): 12.44 g/dL
- Renal BUN (40 mg/kg i.p. daily, 3 weeks): 28.8 mg/dL
- Liver ALT (40 mg/kg i.p. daily, 3 weeks): 41.67 U/L
- CBC LY (40 mg/kg i.p. daily, 3 weeks): 84.522%
- CBC PLT (40 mg/kg i.p. daily, 3 weeks): 449.2 K/uL
- Renal Cre (40 mg/kg i.p. daily, 3 weeks): <0.15 mg/dL
- CBC BA (40 mg/kg i.p. daily, 5 weeks): 0.092%
- CBC EO (40 mg/kg i.p. daily, 5 weeks): 0.618%
- CBC MO (40 mg/kg i.p. daily, 5 weeks): 9.158%
- CBC WBC (40 mg/kg i.p. daily, 5 weeks): 5.876 K/uL
- Liver Alb (40 mg/kg i.p. daily, 5 weeks): 2.98 g/dL
- CBC RBC (40 mg/kg i.p. daily, 5 weeks): 9.714 M/uL
- CBC NE (40 mg/kg i.p. daily, 5 weeks): 8.926%
- CBC Hb (40 mg/kg i.p. daily, 5 weeks): 13.38 g/dL
- Renal BUN (40 mg/kg i.p. daily, 5 weeks): 26.4 mg/dL
- Liver ALT (40 mg/kg i.p. daily, 5 weeks): 46.2 U/L
- CBC LY (40 mg/kg i.p. daily, 5 weeks): 81.206%
- CBC PLT (40 mg/kg i.p. daily, 5 weeks): 548.8 K/uL
- Renal Cre (40 mg/kg i.p. daily, 5 weeks): <0.15 mg/dL
- CBC BA (60 mg/kg i.p. daily, 3 weeks): 0.078%
- CBC EO (60 mg/kg i.p. daily, 3 weeks): 0.35%
- CBC MO (60 mg/kg i.p. daily, 3 weeks): 9.418%
- CBC WBC (60 mg/kg i.p. daily, 3 weeks): 6.712 K/uL
- Liver Alb (60 mg/kg i.p. daily, 3 weeks): 3.5 g/dL
- CBC RBC (60 mg/kg i.p. daily, 3 weeks): 9.858 M/uL
- CBC NE (60 mg/kg i.p. daily, 3 weeks): 12.606%
- CBC Hb (60 mg/kg i.p. daily, 3 weeks): 14.76 g/dL
- Renal BUN (60 mg/kg i.p. daily, 3 weeks): 25.4 mg/dL
- Liver ALT (60 mg/kg i.p. daily, 3 weeks): 50.5 U/L
- CBC LY (60 mg/kg i.p. daily, 3 weeks): 77.548%
- CBC PLT (60 mg/kg i.p. daily, 3 weeks): 700.8 K/uL
- Renal Cre (60 mg/kg i.p. daily, 3 weeks): <0.15 mg/dL
- CBC BA (60 mg/kg i.p. daily, 5 weeks): 0.016%
- CBC EO (60 mg/kg i.p. daily, 5 weeks): 0.304%
- CBC MO (60 mg/kg i.p. daily, 5 weeks): 10.276%
- CBC WBC (60 mg/kg i.p. daily, 5 weeks): 5.664 K/uL
- Liver Alb (60 mg/kg i.p. daily, 5 weeks): 2.72 g/dL
- CBC RBC (60 mg/kg i.p. daily, 5 weeks): 8.958 M/uL
- CBC NE (60 mg/kg i.p. daily, 5 weeks): 7.656%
- CBC Hb (60 mg/kg i.p. daily, 5 weeks): 12.74 g/dL
- Renal BUN (60 mg/kg i.p. daily, 5 weeks): 22.8 mg/dL
- Liver ALT (60 mg/kg i.p. daily, 5 weeks): 49.2 U/L
- CBC LY (60 mg/kg i.p. daily, 5 weeks): 81.742%
- CBC PLT (60 mg/kg i.p. daily, 5 weeks): 618 K/uL
- Renal Cre (60 mg/kg i.p. daily, 5 weeks): <0.15 mg/dL
